Results as given in the supplement of paper PMC11061612.

What was measured:
Assay in all cases: combination Emax (second highest fraction inhibited in the dose matrix, 72 h); higher = more inhibition; extreme values may be limits of the assay
[1] = tested on: DB (B-Cell Non-Hodgkin's Lymphoma)
Summary of the method: (§1)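 After 24 hours at 37°C and 5% CO2 in 1536-well plates, cells in DMEM/F12 or RPMI plus 10% FBS received two-drug dose matrices for 72 hours. Viability came from CellTiter-Glo 2.0 luminescence and was scaled as inhibition, anchored at 0 by vehicle wells and at 1 by blank wells. Combination Emax is taken as the second-highest inhibition in the matrix, and Bliss excess as the observed combination effect less EA + EB − EA·EB, with EA and EB the single-agent effects.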

[2] = tested on: DOV13 (Ovarian Carcinoma)
Summary of the method: as §1

[3] = tested on: DSH1 (Bladder Carcinoma)
Summary of the method: as §1

[4] = tested on: ES7 (Ewing's Sarcoma)
Summary of the method: as §1

[5] = tested on: HT-29 (Colorectal Carcinoma)
Summary of the method: as §1

[6] = tested on: IHH-4 (Thyroid Gland Carcinoma)
Summary of the method: as §1

[7] = tested on: KARPAS-620 (Plasma Cell Myeloma)
Summary of the method: as §1

[8] = tested on: KATOIII (Gastric Carcinoma)
Summary of the method: as §1

[9] = tested on: LS-513 (Colorectal Carcinoma)
Summary of the method: as §1

[10] = tested on: MDA-MB-157 (Breast Carcinoma)
Summary of the method: as §1

[11] = tested on: MDA-MB-231 (Breast Carcinoma)
Summary of the method: as §1

[12] = tested on: MFH-ino (Other Solid Carcinomas)
Summary of the method: as §1

[13] = tested on: NALM-6 (B-Lymphoblastic Leukemia)
Summary of the method: as §1

[14] = tested on: NCI-H2595 (Mesothelioma)
Summary of the method: as §1

[15] = tested on: OCI-AML2 (Acute Myeloid Leukemia)
Summary of the method: as §1

[16] = tested on: SK-N-FI (Neuroblastoma)
Summary of the method: as §1

[17] = tested on: SN12C (Kidney Carcinoma)
Summary of the method: as §1

[18] = tested on: SW1088 (Low Grade Glioma)
Summary of the method: as §1

[19] = tested on: SW1990 (Pancreatic Carcinoma)
Summary of the method: as §1

[20] = tested on: TE-5 (Esophageal Squamous Cell Carcinoma)
Summary of the method: as §1

| Structure (SMILES) | combination Emax [1] | combination Emax [2] | combination Emax [3] | combination Emax [4] | combination Emax [5] | combination Emax [6] | combination Emax [7] | combination Emax [8] | combination Emax [9] | combination Emax [10] | combination Emax [11] | combination Emax [12] | combination Emax [13] | combination Emax [14] | combination Emax [15] | combination Emax [16] | combination Emax [17] | combination Emax [18] | combination Emax [19] | combination Emax [20] |
| --- | --- | --- | --- | --- | --- | --- | --- | --- | --- | --- | --- | --- | --- | --- | --- | --- | --- | --- | --- | --- |
| N#Cc1cnc(Nc2cc(NC[C@H]3CNCCO3)c(C(F)(F)F)cn2)cn1 [SRA737] + CCc1c2c(nc3ccc(O)cc13)-c1cc3c(c(=O)n1C2)COC(=O)[C@]3(O)CC [SN-38] (first compound max 10 µM, 7x7, partner max 0.3 µM) | 0.988 | 0.994 | 0.95 | 1 | 0.903 | 0.98 | 0.658 | 0.543 | 0.742 | 0.955 | 0.908 | 0.704 | 1 | 0.389 | 1 | 0.606 | 0.627 | 0.736 | 0.519 | 0.851 |
| CC1(C)CCC(CN2CCN(c3ccc(C(=O)NS(=O)(=O)c4ccc(NCC5CCOCC5)c([N+](=O)[O-])c4)c(Oc4cnc5[nH]ccc5c4)c3)CC2)=C(c2ccc(Cl)cc2)C1 [Venetoclax] + CS(=O)(=O)CCNCc1ccc(-c2ccc3ncnc(Nc4ccc(OCc5cccc(F)c5)c(Cl)c4)c3c2)o1 [Lapatinib] (first compound max 1 µM, 7x7, partner max 10 µM) | 0.949 | 0.166 | 0.747 | 0.613 | 0.731 | 0.175 | 0.981 | 0.291 | 0.615 | 0.172 | 0.17 | 0.0533 | 0.911 | 0.197 | 1 | 0.223 | 0.222 | 0.254 | 0.174 | 0.218 |
| O=C(c1cc(Cc2n[nH]c(=O)c3ccccc23)ccc1F)N1CCN(C(=O)C2CC2)CC1 [Olaparib] + CN(CC[C@H](CSC1=CC=CC=C1)NC2=C(C=C(C=C2)S(=O)(=O)NC(=O)C3=CC=C(C=C3)N4CCC(CC4)[C@H](C5=CC=CC=C5C6=CC=C(C=C6)Cl)O)S(=O)(=O)C(F)(F)F)CCO [AZD4320] (first compound max 10 µM, 7x7, partner max 1 µM) | 0.923 | 0.86 | 0.512 | 0.969 | 0.104 | 0.206 | 1 | 0.37 | 0.452 | 0.216 | 0.668 | 0.108 | 0.974 | 0.228 | 1 | 0.144 | 0.18 | 0.147 | 0.328 | 0.238 |
